Assay results reported in US20010041801A1, “Water soluble fullerenes with antiviral activity” (The Regents of the University of California, priority 1994, published 2001).
Values joined by “and” are separate entries in the source; they are usually repeats but may differ in a detail not shown here. Identical values can stand only once. “Also recorded” adds a separate entry of the source. Like-named read-outs stand apart in the source and are kept apart here.

How the values were obtained:
Solubility in water = conditions: pH≧7
HIV-1 LAI = assay: Antiviral activity in acutely infected human PBMC, virus RT level; assay type: cell-based; conditions: Human immunodeficiency virus 1, PBMC, 144 h, read-out: Antiviral Activity (EC50) in PBMC infected with HIVLAI
Experimental: (§1) Compound 2c was evaluated for antiviral activity in cells acutely and chronically infected with human immunodeficiency virus (HIV). Reverse transcriptase (RT) levels associated with virus were determined with virus concentrated from cell culture supernatants by high-speed centrifugation to reduce the chances of drug carryover in the enzyme assay using the method described in R. F. Schinazi, et al., Antimicrob. Agents Chemother., 36:2423-2431, 1992.

HIV-2ROD = assay: as above; assay type: cell-based; conditions: Human immunodeficiency virus 2, PBMC, 144 h, read-out: Antiviral Activity (EC50) in PBMC infected with HIV-2ROD
Experimental: as §1

HIV-1 HI 12.2 = assay: Susceptibility of pretherapy AZT-susceptible isolate in acutely infected PBMC; assay type: cell-based; conditions: Human immunodeficiency virus 1, PBMC, read-out: EC50 against pretherapy isolate
Excerpt: (§2) The availability of AZT-resistant and -susceptible viruses allowed us to evaluate the compounds of this invention for their susceptibilities to these viruses in acutely infected PBMC in two experiments. […] In the same assay, the EC50 for TIBO [(+)-(5s)-4,5,6,7-tetrahydro-5methyl-6-(3-methyl-2-butenyl)imidazo(4,5,1-jk)(1,4)benzodiazepin-2(1 H)-thione] R82150 increased >500-fold (data not shown).

HIV-1III = assay: Antiviral activity in chronically infected H9 cells, virus RT level; assay type: cell-based; conditions: Human immunodeficiency virus 1, H9, 144 h, read-out: Antiviral Activity (EC50) in H9 cells infected with HIV-1III
Experimental: as §1

[1] = tested on: nevirapine (BI-RG587)-susceptible HIV-1; assay: Susceptibility of nevirapine-susceptible HIV-1; assay type: cell-based; conditions: Human immunodeficiency virus 1, read-out: EC50 against nevirapine-susceptible HIV-1
DNA polymerase α = DNA polymerase α (Homo sapiens, UniProt P09884); assay: Inhibition of cellular DNA polymerase α, cell-free; assay type: biochemical; conditions: AZT-5′-triphosphate used for AZT, read-out: IC50 Polymerases: DNA Polymerase α
H9 cells = assay: Cytotoxicity in H9 cells; assay type: cell-based, human; conditions: b68: up to 100 μM
Cytotoxicity in H9 cells = assay type: cell-based, human; conditions: human, H9 cells; cell counts on day 6
HIV-1 protease (HIVP) = target: T1, HIV-1 protease (HIVP) (Human immunodeficiency virus type 1 group M subtype B, UniProt P04585); assay: Inhibition of HIV-1 protease, HPLC assay with kinetic analysis; assay type: biochemical
T1 construct: HIV produces a small, dimeric aspartyl protease which specifically cleaves the polyprotein precursors
Experimental: The ability of compound 2c to inhibit the HIVP was assayed with an HPLC method as described in R. L DesJarlais, et al., Proc. Natl. Acad. Sci U.S.A., 87:6644-6648, 1990. […] Assays were performed in buffer containing 50 mM NaAc pH 5.5, 1.0 M NaCl, 5% glycerol, 1% DMSO, and 2 mM EDTA. Inhibitor was preincubated with ≈0.05 μg of enzyme for 5 minutes at which time the reaction was initiated by addition of substrate. The reaction was quenched at <15% product formation by the addition of 15 μL of 10% TFA. The cleavage products of the substrate peptide H-Lys-Ala-Arg-Val-Tyr-p-nitro-Phe-Glu-Ala-Ile-NH2 (made by Bachem, Philadelphia, Pa.) were assayed by HPLC using a 10-40% (acetonitrile, 0.1% TFA): (water, 0.1% TFA) gradient over 30 minutes at 1 mL/minute. Product was quantitated by integration of peak areas followed by comparison to product standard curves.
Determination of kinetic constants was done with the program KinetAsyst (IntelliKinetics) by fitting of the data to the equation […]] which describes competitive inhibition.

HIV-1G910-6 = assay: microbe, parasite or virus in culture; assay type: cell-based
Excerpt: as §2

HIV-1 RT = HIV-1 RT (Human immunodeficiency virus type 1 group M subtype B, UniProt P04585); assay: Inhibition of recombinant p66/51 HIV-1 RT, poly(rA)n.oligo(T)12-18 template-primer; assay type: biochemical; conditions: IC50 Polymerases: HIV-1 RT, cell-free; AZT-5′-triphosphate used for AZT
Experimental: The compound was also evaluated for its inhibitory effect on recombinant p66/51 HIV-1 RT by using poly(rA)n.oligo(T)12-18 as the template-primer as described in Schinazi, et al. (1992, supra). Compound 2c was active against this enzyme, with a median inhibitory concentration (1C50) of 4.6 μM. This value was of the same order of magnitude as that noted for the antiviral assays (TABLE 3). […] AZT-5′ triphosphate and phosphonoformate (PFA), used as positive controls, were effective and selective against HIV-1 RT.

[2] = Cytotoxicity in uninfected PBMC; assay type: cell-based, human; conditions: human, uninfected PBMC; thymidine uptake day 2 and cell counts day 6
PBMC = assay: Cytotoxicity in uninfected PBMC; assay type: cell-based, human; conditions: b68: up to 100 μM
[3] = target: T2, recombinant HIV-1 protease (Human immunodeficiency virus type 1 group M subtype B, UniProt P04585); assay: Antiprotease assay, method similar to Ido et al.; assay type: biochemical
T2 construct: HIV produces a small, dimeric aspartyl protease which specifically cleaves the polyprotein precursors
Experimental: Routine protocols can be followed to determine whether a derivatized buckministerfullerene compound has virucidal properties. […] This method is similar to that described by Ido, et al., J. Biol. Chem., 266:24359-24366, 1991). Inhibition is time dependent, and preincubation with the inhibitor results in greater enzyme inhibition, indicating a slow binding process
Compound 2c also has antiprotease activity. […] The method used for the assay was similar to that described by Ido, et al., J. Biol. Chem., 266:24359-24366, 1991).

Sequence of DNA polymerase α (P09884 whole entry): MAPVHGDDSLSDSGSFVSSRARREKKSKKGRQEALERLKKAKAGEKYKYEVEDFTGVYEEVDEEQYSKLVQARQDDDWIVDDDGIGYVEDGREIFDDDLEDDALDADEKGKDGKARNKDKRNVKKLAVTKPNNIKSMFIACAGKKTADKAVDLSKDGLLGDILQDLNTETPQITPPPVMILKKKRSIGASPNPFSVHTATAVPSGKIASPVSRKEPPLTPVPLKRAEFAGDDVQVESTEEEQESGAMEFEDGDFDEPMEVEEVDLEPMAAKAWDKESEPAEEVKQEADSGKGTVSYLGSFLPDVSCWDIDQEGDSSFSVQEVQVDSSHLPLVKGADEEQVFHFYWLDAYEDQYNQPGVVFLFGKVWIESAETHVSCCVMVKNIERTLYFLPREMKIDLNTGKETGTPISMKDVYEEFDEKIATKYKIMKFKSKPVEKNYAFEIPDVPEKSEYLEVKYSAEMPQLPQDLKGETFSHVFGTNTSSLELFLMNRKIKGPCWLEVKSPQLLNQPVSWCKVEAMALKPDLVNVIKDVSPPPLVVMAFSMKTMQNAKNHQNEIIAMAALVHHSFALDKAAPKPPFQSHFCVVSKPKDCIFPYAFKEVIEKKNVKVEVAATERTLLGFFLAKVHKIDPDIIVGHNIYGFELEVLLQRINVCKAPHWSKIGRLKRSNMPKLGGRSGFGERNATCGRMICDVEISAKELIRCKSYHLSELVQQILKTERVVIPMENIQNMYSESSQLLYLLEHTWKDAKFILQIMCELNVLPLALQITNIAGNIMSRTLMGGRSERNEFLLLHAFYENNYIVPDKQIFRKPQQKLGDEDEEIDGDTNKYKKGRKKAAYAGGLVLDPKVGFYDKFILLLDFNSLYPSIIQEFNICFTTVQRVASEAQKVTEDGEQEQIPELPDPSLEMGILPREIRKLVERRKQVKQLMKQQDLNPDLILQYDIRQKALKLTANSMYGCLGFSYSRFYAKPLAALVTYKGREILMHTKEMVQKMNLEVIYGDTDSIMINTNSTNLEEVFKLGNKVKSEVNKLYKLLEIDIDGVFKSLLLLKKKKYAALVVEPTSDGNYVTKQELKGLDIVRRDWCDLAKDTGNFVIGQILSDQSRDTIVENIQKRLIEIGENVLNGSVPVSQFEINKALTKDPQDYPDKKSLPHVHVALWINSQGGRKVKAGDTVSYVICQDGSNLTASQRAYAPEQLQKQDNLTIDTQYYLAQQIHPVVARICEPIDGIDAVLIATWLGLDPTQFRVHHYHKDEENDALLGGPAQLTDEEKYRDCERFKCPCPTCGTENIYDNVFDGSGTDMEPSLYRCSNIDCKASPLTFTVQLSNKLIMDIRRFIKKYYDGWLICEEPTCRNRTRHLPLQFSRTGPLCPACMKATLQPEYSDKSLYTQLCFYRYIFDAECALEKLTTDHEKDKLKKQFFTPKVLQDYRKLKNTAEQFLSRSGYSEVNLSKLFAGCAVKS
Sequence of DNA polymerase α (Q14181 whole entry partner): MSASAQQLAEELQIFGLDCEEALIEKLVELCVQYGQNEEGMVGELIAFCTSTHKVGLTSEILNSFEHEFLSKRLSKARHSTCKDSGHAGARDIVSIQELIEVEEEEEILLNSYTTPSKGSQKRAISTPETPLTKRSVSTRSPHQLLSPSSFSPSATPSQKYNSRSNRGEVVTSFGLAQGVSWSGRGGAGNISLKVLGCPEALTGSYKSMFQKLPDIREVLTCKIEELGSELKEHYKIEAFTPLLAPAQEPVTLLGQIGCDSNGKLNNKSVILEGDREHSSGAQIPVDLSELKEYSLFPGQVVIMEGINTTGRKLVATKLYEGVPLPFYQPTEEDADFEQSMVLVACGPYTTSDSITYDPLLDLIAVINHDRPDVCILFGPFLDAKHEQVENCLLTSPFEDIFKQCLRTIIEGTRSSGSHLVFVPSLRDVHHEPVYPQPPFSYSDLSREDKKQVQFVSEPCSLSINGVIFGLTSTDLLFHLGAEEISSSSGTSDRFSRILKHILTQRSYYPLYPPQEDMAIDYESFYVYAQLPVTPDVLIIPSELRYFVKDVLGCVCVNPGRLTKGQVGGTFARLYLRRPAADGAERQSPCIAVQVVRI
Sequence of DNA polymerase α (P49642 whole entry partner): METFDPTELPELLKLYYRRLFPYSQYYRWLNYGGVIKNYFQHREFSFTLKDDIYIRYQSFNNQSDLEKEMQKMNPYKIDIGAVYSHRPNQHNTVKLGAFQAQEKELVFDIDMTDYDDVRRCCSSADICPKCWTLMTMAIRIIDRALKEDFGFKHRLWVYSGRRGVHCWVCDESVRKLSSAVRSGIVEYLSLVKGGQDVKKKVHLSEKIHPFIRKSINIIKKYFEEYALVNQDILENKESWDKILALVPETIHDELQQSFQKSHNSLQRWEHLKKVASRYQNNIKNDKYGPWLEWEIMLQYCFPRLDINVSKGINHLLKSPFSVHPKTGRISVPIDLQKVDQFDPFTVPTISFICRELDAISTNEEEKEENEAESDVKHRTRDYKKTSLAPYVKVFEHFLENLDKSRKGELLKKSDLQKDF
Sequence of DNA polymerase α (P49643 whole entry partner): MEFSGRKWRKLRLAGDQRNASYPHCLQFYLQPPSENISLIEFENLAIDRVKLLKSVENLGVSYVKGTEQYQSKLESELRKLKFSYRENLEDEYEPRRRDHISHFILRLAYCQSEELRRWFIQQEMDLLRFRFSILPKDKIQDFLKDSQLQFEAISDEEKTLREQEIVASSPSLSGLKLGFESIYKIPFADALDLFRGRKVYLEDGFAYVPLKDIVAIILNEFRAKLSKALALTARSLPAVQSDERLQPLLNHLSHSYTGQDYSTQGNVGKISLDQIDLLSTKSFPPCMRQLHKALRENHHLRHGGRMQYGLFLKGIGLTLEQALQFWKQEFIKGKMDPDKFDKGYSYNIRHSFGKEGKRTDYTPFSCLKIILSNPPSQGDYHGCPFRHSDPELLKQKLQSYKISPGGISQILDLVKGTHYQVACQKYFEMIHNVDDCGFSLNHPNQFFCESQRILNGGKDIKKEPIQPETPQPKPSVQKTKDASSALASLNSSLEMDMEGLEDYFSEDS

For `O=C(O)CCC(=O)NCCc1ccc(C2(c3ccc(CCNC(=O)CCC(=O)O)cc3)C34c5c6c7c8c9c%10c(c%11c%12c3c3c5c5c%13c6c6c7c7c9c9c%14c%10c%10c%11c%11c%12c%12c3c3c5c5c%13c%13c6c6c7c9c7c9c%14c%10c%10c%11c%11c%12c3c3c5c5c%13c6c7c6c9c%10c%11c3c56)C824)cc1` [Compound 2c, bis(monosuccinimide) derivative of p,p′-bis(2-aminoethyl)diphenyl-C60], the “solubility in water” value (Solubility in water) was “soluble”, the EC50 (HIV-1 LAI) was 7.3 ± 5.9 µM and the EC50 (HIV-2ROD) was 5.5 ± 3.8 µM. For the same compound, the EC50 (HIV-1 HI 12.2) was 2 to 8 µM, the EC50 (HIV-1III) was 10.8 ± 8.2 µM and the EC50 [1] was 0.53 µM. The IC50 (DNA polymerase α) was 4.9 µM and ~5 µM, the “cytotoxicity in H9 cells” value (H9 cells) was “No cytotoxicity; also recorded: noncytotoxic” and the IC50 at 6 days (Cytotoxicity in H9 cells) was greater than 100 µM. For the same compound, the Ki (HIV-1 protease (HIVP)) was 5.3 µM, the mode of inhibition (HIV-1 protease (HIVP); kinetic analysis of HIVP) was “competitive” and the EC50 (HIV-1G910-6; Human immunodeficiency virus 1, PBMC, read-out: EC50 against AZT-resistant HIV-1, acutely infected PBMC / lymphocytes) was 2.8 µM. The EC50 (HIV-1G910-6; read-out: EC50 against AZT-resistant HIV-1, acutely infected PBMC / lymphocytes) was 3 µM, the IC50 (HIV-1 RT) was 4.6 µM and ~5 µM and the IC50 [2] was greater than 100 µM. The “cytotoxicity in uninfected PBMC (words)” value (PBMC) was “No cytotoxicity; also recorded: noncytotoxic”, the “cytotoxicity in uninfected PBMC (words)” value (PBMC; listed as bis(monosuccinimide) derivative of p,p′-bis(2-aminoethyl)-diphenyl) was “no cytotoxicity” and the IC50 [3] was 2 µM.
